Consider one molecule from US20040052922A1, “Nutritional and therapeutical preparations having antioxidant activity” (priority 2000, published 2004).

Common to all, as to type: in vivo, rat
Test [1] deals with membrane of plasma platelets. The experiment in a line: Membrane fluidity of plasma platelets (TMA-DPH fluorescent probe) in rats on hypercaloric, hyperlipidemizing diet. The note with it: expressed as % compared with controls values at time 0; after 20 days of dietary treatment. How it is done: (§1) Rats received hypercaloric, hypertriglyceridemizing and hypercholesterolemizing diet. After twenty days of treatment, the effect of the compositions on the following parameters was evaluated: 80 Male rats, each weighing 150-200 g, were used. The animals were subdivided into 8 groups of 10 animals each: […] 20% casein; 3.5% mixture of oligoelements and mineral salts; 0.1% mixture of vitamins; 0.2% choline ditartrate; 2% cellulose; cholesterol 0.5%; 0.25% sodium cholate; 58.44% saccharose; 10.0% lard and 4.9% olive oil. […] 3rd group A: animals were treated with a polycosanols mixture (octacosanol=50%) of rice wax (PLC), animals received for 20 days the same diet as the controls, except that 0.5 g of rice wax polycosanols replaced in part a similar amount of olive oil (olive oil used: 4.4%). […] 5th group: treated with 1-piperoylpiperidine (P); animals received for 20 days the same diet as the controls, except that 0.025 g of 1-piperoylpiperidine replaced a similar amount of olive oil (olive oil used: 4.875%). […] Membrane fluidity of erythrocyte ghosts and plasma platelets was measured using TMA-DPH as fluorescent probe, according to the method by […]. et al., 1999, Thromb. Hoemost., 82 pp. 149.

For another test, the system named is lipoperoxides. The experiment in a line: Lipoperoxides levels (malonyldialdehyde) in plasma, liver, brain and heart of rats on hypercaloric diet. How it is done:
Rats received hypercaloric, hypertriglyceridemizing and hypercholesterolemizing diet. After twenty days of treatment, the effect of the compositions on the following parameters was evaluated: 1) lipoperoxides levels in plasma, liver, brain and heart; 80 Male rats, each weighing 150-200 g, were used. […] 20% casein; 3.5% mixture of oligoelements and mineral salts; 0.1% mixture of vitamins; 0.2% choline ditartrate; 2% cellulose; cholesterol 0.5%; 0.25% sodium cholate; 58.44% saccharose; 10.0% lard and 4.9% olive oil. […] Malonyldialdehyde was evaluated according to the procedure by K. Yagi et al., 1982, in “Lipid Peroxides in Biology and Medicine”, Academic Press, New York, pp. 324-340.

Test [2] is described as follows: Total cholesterol, HDL cholesterol and triglycerids plasma levels in rats on hypercaloric diet. How it is done: (§2) Rats received hypercaloric, hypertriglyceridemizing and hypercholesterolemizing diet. After twenty days of treatment, the effect of the compositions on the following parameters was evaluated: 4) total cholesterol and HDL cholesterol plasma levels; 5) total triglycerids plasma levels. 80 Male rats, each weighing 150-200 g, were used. The animals were subdivided into 8 groups of 10 animals each: […] 20% casein; 3.5% mixture of oligoelements and mineral salts; 0.1% mixture of vitamins; 0.2% choline ditartrate; 2% cellulose; cholesterol 0.5%; 0.25% sodium cholate; 58.44% saccharose; 10.0% lard and 4.9% olive oil. […] 3rd group A: animals were treated with a polycosanols mixture (octacosanol=50%) of rice wax (PLC), animals received for 20 days the same diet as the controls, except that 0.5 g of rice wax polycosanols replaced in part a similar amount of olive oil (olive oil used: 4.4%). […] 5th group: treated with 1-piperoylpiperidine (P); animals received for 20 days the same diet as the controls, except that 0.025 g of 1-piperoylpiperidine replaced a similar amount of olive oil (olive oil used: 4.875%).

The subject of test [3] is membrane of erythrocyte ghosts. Put plainly: Membrane fluidity of erythrocyte ghosts (TMA-DPH fluorescent probe) in rats on hypercaloric, hyperlipidemizing diet. The following applies: expressed as % compared with controls values at time 0; after 20 days of dietary treatment. As to the method: as §1
Test [4] is described as follows: Body weight of rats on hypercaloric diet. As to the method:
as §2, with “2) body weight;” for “4) total cholesterol and HDL cholesterol plasma levels; 5) total triglycerids plasma levels.”

Where [5] appears, read: after 20 days of diet treatment.
Setting [6] is: in brackets, control after 20 day diet = 100%.

With `O=C(/C=C/C=C/c1ccc2c(c1)OCO2)N1CCCCC1` [P, 1-piperoylpiperidine], in test [1], the “membrane fluidity (plasma platelets)” value worked out at 70%. Also, the “MDA BRAIN” value with lipoperoxides (brain, after 20 day dietary treatment) is reported as 107 ± 5 n mols of malonyldialdehyde (MDA) per gram of tissue. Besides, the “Percent change vs. controls (MDA BRAIN)” value in the test on lipoperoxides (brain, vs control rats after 20 days of diet) was −0.9%. The “MDA HEART” value with lipoperoxides (heart, after 20 day dietary treatment) was 44 ± 7 n mols of malonyldialdehyde (MDA) per gram of tissue. For the same molecule, the “Percent change compared with controls (MDA HEART)” value with lipoperoxides (heart, vs control rats after 20 days of diet) is −2.2%. For the same molecule, the “MDA LIVER” value in the test with lipoperoxides (liver, after 20 day dietary treatment) is on record as 43.5 ± 7.8 n mols of malonyldialdehyde (MDA) per gram of tissue. Besides, the “Percent change vs. controls (MDA LIVER)” value in the test with lipoperoxides (liver, vs control rats after 20 days of diet) was −1.5%. Further, the “MDA PLASMA” value in the test on lipoperoxides (plasma, after 20 day dietary treatment) was 5.0 ± 0.3 n mols of malonyldialdehyde (M. The “Percent change vs. controls (MDA PLASMA)” value in the test with lipoperoxides (plasma, vs control rats after 20 days of diet) is recorded as −1.9%. In test [2] (setting [5]), this molecule showed an HDL cholesterol of 29.3 ± 1.5 mg/dL, a Total cholesterol of 125.2 ± 12.5 mg/dL and a total triglycerids of 81.9 ± 8.7 mg/dL. Moreover, in test [2] (setting [6]), the “Total cholesterol, percent change vs control rats after 20 day diet” value is reported as −0.7% and the “total triglycerids, percent change vs control rats after 20 day diet” value is −0.7%. Besides, the “membrane fluidity (erythrocyte ghosts)” value in test [3] came to 73%. The body weight in test [4] (setting [5]) is 223 ± 16 g. In addition, in test [4] (setting [6]), the “body weight, percent change vs control rats after 20 day diet” value was −0.4%.
